Target: T1, HIV-1 protease (Human immunodeficiency virus type 1 group M subtype B, UniProt P04585)
T1 construct: The enzyme HIV-1 protease exists as a dimer
Experiment: Isothermal denaturation of Oregon Green-labelled HIV-1 protease monitored by fluorescence correlation spectroscopy (FCS)
Assay type: binding
Experimental: HIV-1 Protease. HIV-1 Protease was extensively dialyzed against 0.1 M sodium phosphate, 0.05% NaN3, pH 6.5, at 5° C., using a Pierce Slide-A-Lyzer™ (2,000 MWCO). The protease concentration was approximately 1 mg/mL. There was a slight turbidity after dialysis. Protease recovery was assumed to be 100% (53 nanomoles in 1.1 mL).
A freshly prepared solution of Oregon Green™ Iodoacetamide (Molecular Probes Inc., Cat. No. O-6010; approximately 10 mM in DMSO) was added at zero and 5 hours of incubation to achieve at each time a 3-fold molar ratio of Oregon Green™ to protease. At approximately 8 hours another addition of a 4-fold molar excess was made. After each addition the solution was gently but thoroughly mixed. Incubations were without agitation at 5° C. and continued for 16 hours after the last addition.
The resulting clear solution was chromatographed over a Bio-Gel P-6 Desalting Gel™ column (0.9 cm×25 cm) using 50% volume/volume (v/v) glacial acetic acid/distilled-water as the eluant. […]
The solution of conjugated protease was 0.2 micron filtered and evaluated for Oregon Green™ concentration by extinction and for protease concentration by amino acid analysis. Spectrophotometric results determined an Oregon Green™ concentration of 1.94 μM. […]
Microfuge tubes containing 1.5 mL buffer were placed in a pre-equilibrated 48° C. water bath and the temperature was monitored with a telethermometer. […]
This material was diluted to 10 nM in a 2.0 mL teflon chamber already located on the microscope stage containing the same buffer at room temperature. […] Binning combines the fluorescence measurements from contiguous time-periods. […]
The autocorrelated data were analyzed with a nonlinear least squares (NLLSF) fitting program based on that disclosed in Yamaoka et. al., J. Pharmacobio Dyn., 4, 8-15 (1981). […]
In these experiments, since both native and denatured proteins exist, the calculated results represent an average value for the amount of material in the two states. […] The data were analyzed with weighting values of either zero or single inverse weighting. […]

[1] = HIV-1 protease incubated with compound at 48° C. for 24 minutes, single inverse weighting, FIG. 8B

SMILES: CCC[C@@]1(CCc2ccccc2)CC(O)=C([C@H](CC)c2cccc(NS(=O)(=O)c3ccc(C(F)(F)F)cn3)c2)C(=O)O1 [PNU-140690]
- stabilization of HIV-1 protease against isothermal denaturation (change in apparent diffusion coefficient as a function of time) (48° C., time points 0 to 60 minutes, with vs without compound, FIG. 9): clearly stabilizes the enzyme
- G(0) (unimolecular model, autocorrelation curve) [1]: 292×10^−3±11.7×10^−3
- diffusion coefficient (unimolecular model, autocorrelation curve) [1]: 1.33×10^−6±0.09×10^−6

Source: patent US6582907B1, “Use of fluorescence correlation spectroscopy to identify compounds that bind to target species under isothermal denaturing conditions” (Pharmacia & Upjohn Company, priority 1999, dated 2003)
